From PMC10484210 (Biochemistry, 2023)

What was measured:
human PAICS = human PAICS (Homo sapiens, UniProt P22234); assay type: biochemical; conditions: two concentrations, 10 and 100 μM
BcPurE = BcPurE (Burkholderia cenocepacia, UniProt B4EA21); experiment: biochemical; assay type: biochemical; conditions: for inhibition of PurE activity in initial screen: two concentrations, 10 and 100 μM, against BcPurE
BcPurE, sequence (B4EA21 1-173): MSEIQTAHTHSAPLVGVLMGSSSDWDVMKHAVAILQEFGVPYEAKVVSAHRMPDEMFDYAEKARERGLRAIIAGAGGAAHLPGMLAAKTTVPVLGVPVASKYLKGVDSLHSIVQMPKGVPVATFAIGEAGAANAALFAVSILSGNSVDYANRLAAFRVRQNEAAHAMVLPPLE

human PAICS, sequence (P22234 whole entry): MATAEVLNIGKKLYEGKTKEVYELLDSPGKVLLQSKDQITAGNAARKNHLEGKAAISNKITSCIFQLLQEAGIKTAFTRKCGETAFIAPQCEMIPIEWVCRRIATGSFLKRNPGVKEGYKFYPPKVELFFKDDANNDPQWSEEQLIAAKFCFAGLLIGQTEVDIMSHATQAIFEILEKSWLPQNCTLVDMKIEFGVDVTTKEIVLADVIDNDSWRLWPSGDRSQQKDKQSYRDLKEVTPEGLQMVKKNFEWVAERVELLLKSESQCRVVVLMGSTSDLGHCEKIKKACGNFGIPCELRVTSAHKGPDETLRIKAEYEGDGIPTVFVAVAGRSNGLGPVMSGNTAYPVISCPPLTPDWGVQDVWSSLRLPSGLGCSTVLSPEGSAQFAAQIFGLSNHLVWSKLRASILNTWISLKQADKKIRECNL

| SMILES | inhibition of human PAICS decarboxylation activity (human PAICS) | inhibition of PurE activity in initial screen (BcPurE) | IC50 (BcPurE) [µM] |
| --- | --- | --- | --- |
| CN(C)C/C=C/C(=O)Nc1cc2c(Nc3ccc(F)c(Cl)c3)ncnc2cc1O[C@H]1CCOC1 [Afatinib] | do inhibit | some degree of inhibition |  |
| COc1cc2nc(N(C)CCCNC(=O)C3CCCO3)nc(N)c2cc1OC (centres unmarked) [Alfuzosin] | little or no inhibition | some degree of inhibition | 47 |
| COc1ccc(CN=c2[nH]c(N3CCC[C@H]3CO)ncc2C(=O)NCc2ncccn2)cc1Cl [Avanafil] | little or no inhibition | some degree of inhibition |  |
| CCc1cc2c(cc1CC)CC(NC[C@H](O)c1ccc(O)c3[nH]c(=O)ccc13)C2 [Indacaterol] | do inhibit | some degree of inhibition |  |
| CC(=O)N1CCN(c2ccc(OCC3COC(Cn4ccnc4)(c4ccc(Cl)cc4Cl)O3)cc2)CC1 (centres unmarked) [Ketoconazole] | little or no inhibition | some degree of inhibition |  |
